Numbering of substitutions follows the chain as printed. pKd: −log10 of the molar value. Entries after “also recorded” stand apart in the source; their conditions may differ. Like-named read-outs stand apart in the source and are kept apart here.
Tests used:
Test in all cases: PapG Luminex ligand binding at equilibrium
[1] = target: T1, E. coli CFT073 PapG-II lectin domain PapGLD variant N96S G18A, SEQ ID NO: 18 (Escherichia coli, UniProt A0A0H2VAQ6, G38A/N116S); conditions: HEPES pH 7.4, 4° C. overnight
T1 sequence (A0A0H2VAQ6 with tags, fused parts or gaps G38A/N116S): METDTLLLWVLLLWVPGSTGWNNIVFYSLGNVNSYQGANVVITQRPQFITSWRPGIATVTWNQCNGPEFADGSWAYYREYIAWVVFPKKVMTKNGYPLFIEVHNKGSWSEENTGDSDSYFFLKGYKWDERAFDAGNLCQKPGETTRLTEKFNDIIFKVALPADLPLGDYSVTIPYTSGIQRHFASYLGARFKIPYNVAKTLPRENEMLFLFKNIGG
Experimental: (§1) To determine the ability of PapGLD mutants to bind the porcine derived globotetraosyl ceramide ligand GalNAc-Gal-Gal-Glc-ceramide (GbO4), a Luminex ligand binding assay was developed. Surfactant Protein-A (SP-A) was coupled to the surface of MagPlex beads by EDC/NHS, to capture the lipid tail of the globotetraosyl ceramide. The Globotetraosyl ceramide/SP-A beads were incubated with an eight-point threefold titration of PapG in a 96 well flat bottom white plate with final volume of 100 microliters of 50 mM HEPES PH 7.4, 10 mM NaCl, 0.0005% Tween 20 shaking at 300 rpm, 4° C. overnight. After 20-24 hours the ligand binding plates were read on a FlexMap 3D plate reader for measurement of well-bead region specific MFI. Ligand binding equilibrium dissociation constants (Kd) were calculated assuming one site specific binding and interpolated using non-linear curve fitting (GraphPad Prism) as the ligand concentration needed to achieve half-maximal binding. The Luminex derived apparent Kd values are based on approximately fifty bead counts per assay sample.
(§2) To determine Luminex ligand binding affinities of PapG mutants for the synthetic globoside ligand Gal-Glc-phenoxy-octyl-amine (GbO2Mpo), a Luminex ligand binding assay was developed based on the direct coupling of the amine reactive globoside ligand to the EDC/NHS activated carboxylic surface of MagPlex beads. Synthesis of GbO2Mpo ligand with an octyl amine linker (for coupling to beads) was performed via methods described previously. The GbO2Mpo beads were incubated with an 8-point, threefold titration of PapG in a 96-well flat bottom white plate with final volume of 100 μl of 50 mM HEPES pH 7.4, 10 mM NaCl, 0.0005% Tween 20 shaking at 300 rpm, 4° C. overnight. After 20-24 hours the ligand binding plates were read on a FlexMap 3D plate reader for measurement of well-bead region specific MFI.
(§3) Binding of PapG proteins to GbO2 or GbO4 ligands was evaluated using a Luminex platform wherein ligands were coupled to MagPlex beads via surfactant protein A (for […]) or directly using […] conjugation (for […]). This assay was used to rank order binding affinities of the mutants, reported as Kd values interpolated from protein antigen titration curves (Table 7).

[2] = target: T2, E. coli CFT073 PapG-II lectin domain PapGLD variant N96S G104A, SEQ ID NO: 16 (Escherichia coli, UniProt A0A0H2VAQ6, G124A/N116S); conditions: for pKd: HEPES pH 7.4, 4° C. overnight
T2 sequence (A0A0H2VAQ6 with tags, fused parts or gaps N116S/G124A): T1 sequence (A0A0H2VAQ6 with tags, fused parts or gaps G38A/N116S) with A38G, G124A
Experimental: as §1, §2, §3

[3] = target: T3, E. coli CFT073 full-length donor strand complemented PapG-II, PapGDSF N96S N242S N286S (Escherichia coli, UniProt A0A0H2VAQ6, N116S/N262S/N306S); conditions: HEPES pH 7.4, 4° C. overnight
T3 construct: mouse IgGK signal peptide, C-terminal 8xHis, ExpiCHO, purified
T3 sequence (A0A0H2VAQ6 with tags, fused parts or gaps N116S/N262S/N306S): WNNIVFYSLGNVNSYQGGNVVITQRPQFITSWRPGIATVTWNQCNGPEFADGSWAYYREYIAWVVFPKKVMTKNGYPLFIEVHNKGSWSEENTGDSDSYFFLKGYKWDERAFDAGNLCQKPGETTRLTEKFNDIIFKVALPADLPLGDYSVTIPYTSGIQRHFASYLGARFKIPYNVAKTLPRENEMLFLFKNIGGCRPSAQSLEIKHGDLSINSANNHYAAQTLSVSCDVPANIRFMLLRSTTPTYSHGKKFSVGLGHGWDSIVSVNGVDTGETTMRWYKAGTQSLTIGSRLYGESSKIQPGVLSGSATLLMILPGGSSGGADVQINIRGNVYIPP
Experimental: as §1, §2, §3

[4] = target: T4, E. coli CFT073 PapG-II lectin domain PapGLD variant N96S G168A, SEQ ID NO: 17 (Escherichia coli, UniProt A0A0H2VAQ6, G188A/N116S); conditions: HEPES pH 7.4, 4° C. overnight
T4 sequence (A0A0H2VAQ6 with tags, fused parts or gaps N116S/G188A): T1 sequence (A0A0H2VAQ6 with tags, fused parts or gaps G38A/N116S) with A38G, G188A
Experimental: as §1, §2, §3

[5] = target: T5, E. coli CFT073 PapG-II lectin domain PapGLD variant N96S G147A, SEQ ID NO: 21 (Escherichia coli, UniProt A0A0H2VAQ6, G167A/N116S); conditions: HEPES pH 7.4, 4° C. overnight
T5 sequence (A0A0H2VAQ6 with tags, fused parts or gaps N116S/G167A): T1 sequence (A0A0H2VAQ6 with tags, fused parts or gaps G38A/N116S) with A38G, G167A
Experimental: as §1, §2, §3

[6] = target: T6, E. coli CFT073 PapG-II lectin domain PapGLD variant N96S G75A, SEQ ID NO: 19 (Escherichia coli, UniProt A0A0H2VAQ6, G95A/N116S); conditions: HEPES pH 7.4, 4° C. overnight
T6 sequence (A0A0H2VAQ6 with tags, fused parts or gaps G95A/N116S): T1 sequence (A0A0H2VAQ6 with tags, fused parts or gaps G38A/N116S) with A38G, G95A
Experimental: as §1, §2, §3

[7] = GbO2Mpo beads, read-out: Kd (GbO2)
[8] = GbO4 beads, read-out: Kd (GbO4)

| Substance | pKd [1, 7] | pKd [2, 7] | pKd [3, 7] | pKd [4, 7] | pKd [5, 7] | pKd [6, 7] | pKd [1, 8] | binding to GbO4 (in words) [2] | pKd [2, 8] | pKd [3, 8] | pKd [4, 8] | pKd [5, 8] | pKd [6, 8] |
| --- | --- | --- | --- | --- | --- | --- | --- | --- | --- | --- | --- | --- | --- |
| Gal-Glc-phenoxy-octyl-amine [GbO2] | 8.74 | < 6.52 | 8.66 | 8.57 | 8.34 | 8.66 | – | – | – | – | – | – | – |
| GalNAc-Gal-Gal-Glc-ceramide [GbO4] | – | – | – | – | – | – | < 8.00 | lower the binding affinity; also recorded: eliminate ligand binding | < 6.52 | 8.52 | < 7.00 | < 6.52 | < 8.00 |

Reference: US20260061042A1, “POLYNUCLEOTIDE COMPOSITIONS AND USES THEREOF” (Pfizer Inc., priority 2024, published 2026)
